According to patent US20070082044A1, “Synergistic effect of compositions comprising carotenoids selected from lutein, beta-carotene and lycopene” (TRUSTEES OF TUFTS COLLEGE, priority 2004, published 2007):
“Also recorded” adds a separate entry of the source. Marks after values point to notes of the source that are not given here.

Assays:
[1] = design: species or system human; details: in vivo
Procedure: (§1) A study was undertaken to evaluate the effectiveness of the composition of the present invention and its effect on the patients. Thirty-seven healthy non-smoking post-menopausal women (50˜70 yr) were randomly assigned to one of 5 groups, to take a daily dose of mixed carotenoids (β-carotene, lutein and lycopene, 4 mg each), or 12 mg of single carotenoid (β-carotene, lutein or lycopene), or placebo for 8 weeks. Plasma carotenoid concentrations were analyzed by an HPLC system with a C30 column, and lymphocyte DNA damage was determined by a single cell gel electrophoresis (comet) assay.
Subjects (50-70 yr, n=37) were housed at the MRU for the first two days of the study. On the first day of the study, subjects were randomly assigned to take either 1) placebo, 2) 4 mg each of lutein, β-carotene and lycopene, 3) 4 mg of lutein, 4) 4 mg of β-carotene, or 5) 4 mg of lycopene with a meal containing 25 g of fat. Subjects were provided with a two-week supply of placebo or carotenoids along with instructions how to consume the supplements while being maintained with a low carotenoid diet on each sampling day (days 1, 15, 29 & 43). In particular, they were instructed to take the carotenoid supplements with their first meal of the day, and this food source should include 10 g of fat to insure maximum absorption of the carotenoid supplement. 10 mL of blood will be drawn at 0 (fasting), 2, 4, 6, 8, 10, 12 and 14 hours after the carotenoid dose to obtain information on the early kinetics of carotenoid absorption and tissue uptake. The subjects had the option to have an intravenous line inserted for blood drawing (I.V.). If they chose this option, 12 mL of blood was drawn for each sample and the first 2 mL of blood was discarded. Chylomicrons (the triglyceride-rich fraction of plasma) were isolated and analyzed for carotenoids to determine the plasma response kinetics in these 14 hr samples. Thereafter, subjects were discharged from the HNRC with a two-week supply of placebo or carotenoids along with instructions on how to consume the doses while being maintained on a low carotenoid diet.
(§2) From the second day of intervention, subjects took either 1) placebo, 2) 4 mg of lutein, 4 mg of β-carotene and 4 mg of lycopene, 3) 12 mg of lutein, 4) 12 mg of β-carotene, or 5) 12 mg of lycopene. On study days 15, 29, 43, and 57, overnight fasting bloods (10 mL) were collected, and 1) plasma carotenoids, 2) antioxidant capacity in both the aqueous and lipid compartments, 3) lipid peroxidation, and 4) DNA damage will be measured in these samples. In addition, 70 mL of fasting blood was collected at days 1 and 57 for the analysis of gene expression profiling in peripheral blood mononuclear cells using high-density filter-based cDNA microarrays. On study day 57, an additional 3 ml of blood was collected to measure the hemoglobin level.
Plasma carotenoid concentrations were measured by a HPLC system as previously described with minor modification (Yeum K J et al. Am J Clin Nutr 1996; 64:594-602). Plasma sample (200 μL) was extracted with 2 mL of chloroform:methanol (2: 1) followed by 3 mL of hexane. Samples were dried under nitrogen and resuspended in 75 μL ethanol:methyl tert-butyl ether (2:1) of which 25 μL was injected onto the HPLC. The HPLC system consisted of a Waters 2695 Separation Module, 2996 Photodiode Array Detector, a Waters 2475 Multi X Fluorescence Detector, a C30 carotenoid column (3 μm, 150×3.0 mm, YMC, Wilmington, N.C.), and a Waters Millenium 32 data station. The mobile phase was methanol:methyl tert-butyl ether:water (85:12:3 with 1.5% ammonium acetate in water; […]) and methanol:methyl tert-butyl ether:water (8:90:2 with 1% ammonium acetate in water; […]). The gradient procedure has been reported earlier (Yeum K J et al. Am J Clin Nutr 1996; 64:594-602). Results were adjusted by an internal standard containing echinenone and retinyl acetate. The CV for interassay (n=25) is 4% and intra assay Is 4% (n=9). […]

[2] = test system: lymphocyte DNA; assay: Basal (endogenous) lymphocyte DNA damage, alkaline single cell gel electrophoresis (comet) assay; type: in vivo, human; details: for basal lymphocyte DNA damage: women 50-70 yr, mixed 4 mg each/d, single carotenoid 12 mg/d, Means ± SD; for basal DNA damage, percent of comet tail ratio (each day value divided by day 1): d 57, different from placebo p<0.005, FIG. 6; for basal (endogenous) DNA damage compared to day 1: day 15
Procedure: as §1, §2
(§3) DNA breaks and oxidized pyrimidine bases were measured using the alkaline comet assay (Duthie et al Cancer Res 1996; 56:1291-1295). The comet assay, also called the Single Cell Gel Assay, was used to detect DNA damage and repair at the level of single cells. The Comet Assay is a rapid, sensitive test for DNA damage detection (e.g., single- and double-strand breaks, oxidative-induced base damage, and DNA-DNA/DNA-protein cross linking) by electrophoresis. The Comet Assay involves the following steps: 1. Slide preparation (i.e., mixing of cells with low melting agarose, and spread over glass microscope slides); 2. Lysis: (i.e., lysis of cell membrane and other proteins); 3. Unwinding of DNA; 4. Electrophoresis; 5. Neutralization; and 6. Staining and scoring. Cells embedded in agarose on a microscope slide are lysed with non-ionic detergent and high salt, leaving supercoiled matrix-attached DNA in a nucleoid. Under alkaline electrophoresis, DNA with breaks extends towards the anode, forming a “comet tail” when viewed by fluorescence microscopy. The percentage of total fluorescence in the tail is linearly related to DNA break frequency up to about 2 per 10^9 daltons.
(§4) Lymphocyte separation: Lymphocytes were separated immediately after blood samples were collected. Lymphocytes were isolated by density gradient sedimentation (Histopaque 1077, Sigma diagnostic, St. Louis, USA) and frozen in 50% fetal calf serum, 40% culture medium (RPMI 1640, Sigma diagnostic, St. Louis, USA ) and 10% dimethyl sulfoxide to −-80° C. at −1° C./min freezing rate before store in liquid nitrogen.
(§5) Cryopreserved lymphocytes recovery: Cells were recovered by submerging in 37° C. water bath until last trace of ice has melted. Cells were transferred to prechilled 50% RPMI 1640 medium and 50% fetal calf serum and centrifuged at 200 g for 5 min at 4° C. Cells were resuspended in cold PBS and checked for viability (typically 95% viability) and cell number (typically 1×10^5 cells/mL). The lymphocytes of five time points (d1, 15, 29, 43 & 57) were recovered at the same time.
(§6) Alkaline single cell gel electrophoresis: DNA strand breaks were measured in lymphocytes with the alkaline single cell gel electrophoresis, comet assay, (Collins A R. Methods Mol Biol 2002; 203:163-77) with minor modifications. The endogenous DNA damage as well as hydrogen peroxide challenged DNA damage were determined by exposing the agarose embedded with cells to PBS or H2O2 in PBS (10 μM) for 10 min respectively.
(§7) Quantitation of DNA damage: The DNA damage was determined by visual image analysis (Collins A R et al. Methods Mol Biol 2002; 186:147-59). […]

[3] = test system: lymphocyte DNA; assay: Hydrogen peroxide induced lymphocyte DNA damage, comet assay; type: in vivo, human; details: for hydrogen peroxide induced lymphocyte DNA damage: DNA challenged with 10 μM H2O2 for 10 min, Means ± SD; for H2O2 induced DNA damage compared to day 1: after 56-day intervention (d 57), H2O2 10 micromolar for 10 min, p<0.05
Procedure: as §1, §2, §3, §4, §5, §6, §7

Structure (SMILES)	plasma lutein levels, change [1]	plasma lycopene concentrations, change [1]	plasma β-carotene levels, change [1]	basal lymphocyte DNA damage ([2]; Day 01 (baseline)) [%]	basal lymphocyte DNA damage ([2]; Day 15)	basal lymphocyte DNA damage ([2]; Day 29)	basal lymphocyte DNA damage ([2]; Day 43)	basal lymphocyte DNA damage ([2]; Day 57)	basal DNA damage, percent of comet tail ratio (each day value divided by day 1) [2]	basal (endogenous) DNA damage compared to day 1 [2]	hydrogen peroxide induced lymphocyte DNA damage ([3]; Day 01 (baseline)) [%]	hydrogen peroxide induced lymphocyte DNA damage ([3]; Day 15) [%]	hydrogen peroxide induced lymphocyte DNA damage ([3]; Day 29) [%]	hydrogen peroxide induced lymphocyte DNA damage ([3]; Day 43) [%]	hydrogen peroxide induced lymphocyte DNA damage ([3]; Day 57)	H2O2 induced DNA damage compared to day 1 [3]
CC(C)=CCC/C(C)=C/C=C/C(C)=C/C=C/C(C)=C/C=C/C=C(C)/C=C/C=C(C)/C=C/C=C(\C)CCC=C(C)C [Lycopene, lycopene]	no increase	significantly increased	did not show any increase	11.9 ± 2.6	10.0 ± 3.5^a %	9.0 ± 2.6^a %	7.5 ± 1.9^b %	6.8 ± 1.6*^c %	significantly decreased	significantly decreased	50.5 ± 8.9	49.2 ± 10.1	51.1 ± 3.5	50.0 ± 6.5	42.5 ± 6.5^b %	significantly improved; also recorded: significantly decreased
CC1=C[C@H](O)CC(C)(C)[C@H]1/C=C/C(C)=C/C=C/C(C)=C/C=C/C=C(C)/C=C/C=C(C)/C=C/C1=C(C)C[C@@H](O)CC1(C)C [Lutein, lutein]	–	significantly lower levels	did not show any increase	10.6 ± 1.4	9.4 ± 2.1%	9.5 ± 1.4%	7.7 ± 1.5^b %	7.1 ± 1.7*^c %	significantly decreased	–	42.8 ± 6.8	43.5 ± 6.2	43.1 ± 5.6	41.5 ± 9.3	39.8 ± 8.4^a %	did not show any significant change
CC1=C(/C=C/C(C)=C/C=C/C(C)=C/C=C/C=C(C)/C=C/C=C(C)/C=C/C2=C(C)CCCC2(C)C)C(C)(C)CCC1 [β-carotene]	no increase	significantly lower levels	–	12.4 ± 2.7	9.7 ± 2.4^b %	8.6 ± 2.9^a %	9.4 ± 2.4^a %	8.0 ± 1.8^b %	significantly decreased	significantly decreased	48.2 ± 6.1	44.5 ± 8.9	41.1 ± 6.2	44.2 ± 5.7	38.0 ± 4.8%	significantly improved; also recorded: significantly decreased
